Source: PubChem BioAssay AID1996
Converted amounts (≈) assume the structure as drawn.

Conditions: buffer; pH 7.4; 200.0 µM

Row | Compound | solubility kinetic
1 | O=C(CSc1ccccc1C(=O)O)NC12CC3CC(CC(C3)C1)C2 | > 51.8 µg/mL
2 | COc1ccc(S(=O)(=O)N2CCc3ccccc3C2)cc1C(=O)O | 48.4 µg/mL (≈ 139 µM)
3 | CSc1nsc(SCC(=O)N2CCCCC2)n1 | > 43.4 µg/mL
4 | C/C(=C\C(=O)c1ccc(Cl)s1)N(C)C | > 34.5 µg/mL
5 | COc1ccc(S(=O)(=O)N2CCOCC2)cc1NC(=O)COC(=O)Cc1ccccc1 | 51.7 µg/mL (≈ 115 µM)
6 | CCNc1nc(Cl)nc(NC2CCCCC2)n1 | 18.4 µg/mL (≈ 71.9 µM)
7 | Cc1ccc(S(=O)(=O)Nc2ccccc2N2CCCCC2)cc1 | 3.1 µg/mL (≈ 9.38 µM)
8 | Cc1cc(C)nc(N/N=C/c2sccc2C)n1 | > 36.9 µg/mL
9 | CCN(CC(=O)NCC(=O)Nc1cccc(C)c1C)Cc1ccccc1 | > 53 µg/mL
10 | O=C(Nc1ccc2oc(-c3ccncc3)nc2c1)c1ccc(F)cc1 | 0.9 µg/mL (≈ 2.7 µM)
11 | CC(C)CC(Nc1ncnc2scc(-c3ccccc3)c12)C(=O)O (stereo not given) | > 51.2 µg/mL
12 | NC(=O)c1ccc(OCC(F)(F)F)nc1 | 31.1 µg/mL (≈ 141 µM)
13 | CCOC(=O)c1ccc(N2C(=O)Cc3ccccc3C2=O)cc1 | > 46.4 µg/mL
14 | COc1ccc(CN2CCOCCOCCOCC2)cc1 | 39.1 µg/mL (≈ 132 µM)
15 | c1ccc(CSc2nc3ccccc3[nH]2)cc1 | 2.1 µg/mL (≈ 8.74 µM)
16 | CCCN(Cc1cc(=O)[nH]c2ccccc12)C(=O)CC | 38.5 µg/mL (≈ 141 µM)
17 | O=C(O)c1cc(N2CCOCC2)nc2ccccc12 | 37.9 µg/mL (≈ 147 µM)
18 | Cc1cc(N2CCN(C)CC2)nc(-c2ccccc2O)n1 | > 42.7 µg/mL
19 | C=CCn1c(N2CCOCC2)nc2c1c(=O)[nH]c(=O)n2C | > 43.7 µg/mL
20 | Cn1nc(-c2ccc(Cl)cc2)cc1NC(=O)CC(C)(C)CC(=O)O | > 52.5 µg/mL

Row | Compound | solubility kinetic
21 | O=c1c(Cc2ccc(F)cc2)c(O)ccn1CCc1ccccn1 | > 48.7 µg/mL
22 | COc1ccc(Cl)cc1C(=O)Nc1nc(C)cc(C)n1 | > 43.8 µg/mL
23 | O=C(NCCNc1ccc([N+](=O)[O-])cc1)c1ccc(Cl)cc1 | 1.9 µg/mL (≈ 5.94 µM)
24 | COc1ccc(C(=O)N[C@H](C(=O)NCc2ccccc2)C(C)C)cc1 | 5.2 µg/mL (≈ 15.3 µM)
25 | CCCc1nc2oc3ccccc3c(=O)c2c(=O)n1CCCOC | > 49.3 µg/mL
26 | CS(=O)(=O)Nc1ccccc1C(=O)NCCSc1ccc(Cl)cc1 | 33.8 µg/mL (≈ 87.8 µM)
27 | Cc1ccc(C(C)C)c(OCC(=O)OCC(=O)NC2CC2)c1 | > 45.8 µg/mL
28 | O=C(OC(C(=O)NCc1ccccc1)c1ccccc1)c1ccco1 (stereo not given) | 41.8 µg/mL (≈ 125 µM)
29 | O=C(COC(=O)c1cccs1)Nc1ccc(F)c(F)c1 | 24.9 µg/mL (≈ 83.8 µM)
30 | O=S(=O)(NC1CC1)c1ccc(Cl)cc1 | > 34.8 µg/mL
31 | COc1ccc(Nc2nccc(-c3cccc(N)c3)n2)cc1 | 22.5 µg/mL (≈ 77 µM)
32 | COc1ccc(C(=O)Nc2cccc3c2CCCC3)cc1 | < 0.6 µg/mL
33 | O=C(O)CC1(CC(=O)NCc2ccccn2)CCCCC1 | > 43.6 µg/mL
34 | CC1CCCCN1C(=O)COc1ccc2ccc(=O)oc2c1 (stereo not given) | 36.4 µg/mL (≈ 121 µM)
35 | CC(=O)Nc1ccc(NC(=O)[C@H](C)NC(=O)c2ccco2)cc1 | > 47.3 µg/mL
36 | CCc1cc(C(=O)NC(C)C2CCCO2)cs1 (stereo not given) | > 38 µg/mL
37 | COc1cccc(COc2ncnc3sccc23)c1 | 37.2 µg/mL (≈ 137 µM)
38 | COc1cc(C(=O)OCCNC(=O)c2ccccc2)cc(OC)c1OC | > 53.9 µg/mL
39 | CC(O)CNCCNCc1cccs1.Cl (stereo not given) | > 43.1 µg/mL
40 | Cn1c(C(=O)N2CCN(c3ccc(F)cc3)CC2)cc2ccccc21 | 2.8 µg/mL (≈ 8.3 µM)

Row | Compound | solubility kinetic
41 | Cc1ccc(S(=O)(=O)NC2CCSC2=O)cc1C (stereo not given) | 3.1 µg/mL (≈ 10.9 µM)
42 | CCCNC(=O)N1CCC(c2nc3ccccc3s2)CC1 | > 45.5 µg/mL
43 | COCCCNC(=O)C1CCN(c2ccc(N3CCOCC3)nn2)CC1 | > 54.5 µg/mL
44 | COc1ccc(NC(C)C(=O)Nc2cccc(S(=O)(=O)N3CCOCC3)c2)cc1OC (stereo not given) | > 67.4 µg/mL
45 | CS(=O)(=O)Nc1ccc(C(=O)Nc2ccccc2-c2ccccc2)cc1 | 42.4 µg/mL (≈ 116 µM)
46 | CC1CCCC(C)N1CC(O)COCc1ccccc1F.Cl (stereo not given) | 45.6 µg/mL
47 | Cc1ccc(-c2cn3cccnc3n2)cc1 | > 31.4 µg/mL
48 | Cc1c(C(=O)O)sc2nc(/C=C/c3cccc(F)c3)[nH]c(=O)c12 | 41.3 µg/mL (≈ 125 µM)
49 | COc1ccc(CNC(=O)CC23CC4CC(CC(C4)C2)C3)cc1 | 1.6 µg/mL (≈ 5.1 µM)
50 | OC(CNC1Cc2ccccc2C1)COc1ccc(Cl)cc1 (stereo not given) | > 47.7 µg/mL
51 | COc1cccc(/C=C/c2nc(C#N)c(NCC(C)C)o2)c1 | 0.4 µg/mL (≈ 1.35 µM)
52 | O=C(O)CSCC(=O)N(c1ccccc1)c1ccccc1 | 42.9 µg/mL (≈ 142 µM)
53 | CN(C)C(=S)Nc1ccc(Br)c(Cl)c1 | 37 µg/mL (≈ 126 µM)
54 | CC(NC(=O)COC(=O)CCC(=O)c1ccc(Cl)cc1)c1ccccc1 (stereo not given) | > 56.1 µg/mL
55 | CC(CCc1ccccc1)NC(=O)CN(C)Cc1ccc(F)cc1 (stereo not given) | 34.4 µg/mL (≈ 105 µM)
56 | CC(C)N(Cc1cc2ccccc2[nH]c1=O)C(=O)c1cccc([N+](=O)[O-])c1 | 3.4 µg/mL (≈ 9.31 µM)
57 | Clc1nn2cnnc2c2ccccc12 | > 30.7 µg/mL
58 | Cc1ccc(NS(=O)(=O)c2ccc(C(=O)NC3CCN(Cc4ccccc4)CC3)cc2)cc1.Cl | 6.4 µg/mL
59 | Cc1cc(C)nc(-n2ncc3c2CC(C)CC3=O)n1 (stereo not given) | > 38.4 µg/mL
60 | Cn1c(=O)c2c(ncn2CCC(=O)N/N=C/c2cccnc2)n(C)c1=O | > 53.3 µg/mL
